The record followed here is ChEMBL document CHEMBL1140323, “Biaryl ureas as potent and orally efficacious melanin concentrating hormone receptor 1 antagonists for the treatment of obesity” (J Med Chem, 2005).

Where only a bound is given, the exact number is not on record here.

In series [1] the target is T1, Melanin-concentrating hormone receptor 1 (Homo sapiens, UniProt Q99705). Put plainly: Inhibition of calcium influx into cells expressing hMCH-R1 in FLIPR assay. Format: functional.
A short description of series [2]: Area under curve(0-6 h) for the compound administered orally at 10 mg/kg in rat. It counts as ADME, organism-based. As to conditions: in vivo, po. More on the design: time < 6 hr, dose 10 mg/kg, route oral.
The target in series [3] is T1, Melanin-concentrating hormone receptor 1. As to the kind of experiment: Inhibition of human melanin concentrating hormone receptor 1.
Series [4] concerns the target Sodium-dependent serotonin transporter (Rattus norvegicus, UniProt P31652). Put plainly: Inhibition of 5-hydroxytryptamine reuptake by serotonin transporter.
In series [5] the test system is Rattus norvegicus. As to the kind of experiment: Ability (3 mg/kg) required to produce a dose dependent decrease in food intake. Format: functional.
For series [6], the system named is Mus musculus. As to the kind of experiment: Oral administration (30 mg/kg) required to reduced food intake relative to control at 4 hr post dose. Format: functional.
The test system of series [7] is Rattus norvegicus. Put plainly: Ability (10 mg/kg) required to suppression the body weight gain relative to control. It counts as functional.
In series [8] the test system is Mus musculus. As to the kind of experiment: Oral administration (30 mg/kg) required to reduced food intake relative to control at 6 hr post dose. Format: functional.
For series [9], the system named is Rattus norvegicus. Put plainly: Ability (3 mg/kg) required to suppression the body weight gain relative to control. Format: functional.
The subject of series [10] is Mus musculus. As to the kind of experiment: Oral administration (30 mg/kg) required to reduced food intake relative to control at 24 hr post dose. It counts as functional.
For series [11], the system named is Rattus norvegicus. As to the kind of experiment: Ability (10 mg/kg) required to produce a dose dependent decrease in food intake. It counts as functional.

T1 sequence (Q99705 whole entry): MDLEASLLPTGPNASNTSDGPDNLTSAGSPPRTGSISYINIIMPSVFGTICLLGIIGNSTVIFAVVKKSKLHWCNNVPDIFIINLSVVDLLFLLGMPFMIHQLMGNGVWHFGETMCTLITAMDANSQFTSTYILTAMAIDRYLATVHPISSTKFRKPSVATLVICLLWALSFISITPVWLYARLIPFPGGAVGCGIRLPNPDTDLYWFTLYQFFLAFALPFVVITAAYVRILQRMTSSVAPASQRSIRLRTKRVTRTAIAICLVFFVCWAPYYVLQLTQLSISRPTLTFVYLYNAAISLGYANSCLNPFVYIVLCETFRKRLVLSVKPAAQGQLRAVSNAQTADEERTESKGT
Chain of Sodium-dependent serotonin transporter (P31652 whole entry): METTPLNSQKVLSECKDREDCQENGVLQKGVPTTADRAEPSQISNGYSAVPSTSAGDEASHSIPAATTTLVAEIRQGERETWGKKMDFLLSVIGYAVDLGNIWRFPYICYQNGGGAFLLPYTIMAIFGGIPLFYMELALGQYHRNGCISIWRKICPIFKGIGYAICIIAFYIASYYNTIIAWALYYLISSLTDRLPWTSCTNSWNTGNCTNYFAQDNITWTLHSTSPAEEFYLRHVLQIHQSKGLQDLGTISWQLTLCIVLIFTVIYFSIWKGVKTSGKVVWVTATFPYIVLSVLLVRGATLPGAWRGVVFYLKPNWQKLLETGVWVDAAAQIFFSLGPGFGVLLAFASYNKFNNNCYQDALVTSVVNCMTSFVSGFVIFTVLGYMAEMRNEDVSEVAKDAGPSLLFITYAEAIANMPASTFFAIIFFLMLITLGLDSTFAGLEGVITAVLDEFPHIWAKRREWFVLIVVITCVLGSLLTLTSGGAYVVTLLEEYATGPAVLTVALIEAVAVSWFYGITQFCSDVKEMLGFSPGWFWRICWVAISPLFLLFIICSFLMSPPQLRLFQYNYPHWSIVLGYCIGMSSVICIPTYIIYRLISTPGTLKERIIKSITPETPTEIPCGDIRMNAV

Consider `N#Cc1cccc(-c2ccc(N(CCN3CC[C@@H](O)C3)C(=O)Nc3ccc(F)c(C(F)(F)F)c3)cc2)c1`, for which, in series [1], the Kb is 8 nM. In series [2], this molecule returned an AUC(0-t) at 6 h of 2790 ng·h/mL. Further, the Ki in [3] came to 1.8 nM.
Regarding `N#Cc1cccc(-c2ccc(N(CCN3CC[C@@H](O)C3)C(=O)Nc3cc(Cl)cc(Cl)c3)cc2)c1`, in series [2], the AUC(0-t) at 6 h came to 1850 ng·h/mL. The molecule also came in with a Ki in [3] of 11 nM.
Take `CN1CCN(CCN(C(=O)Nc2ccc(C(F)(F)F)c(F)c2)c2ccc(-c3cccc(C#N)c3)cc2)CC1`: the Ki in series [4] is greater than 1000 nM; in [3] it was 8.2 nM. The molecule further returned an area under the curve AUC(0-t) at 6 h in [2] of 542 ng·h/mL.
Regarding `CC(C)C(=O)N1CCC(N(C(=O)Nc2ccc(F)c(C(F)(F)F)c2)c2ccc(-c3cccc(C#N)c3)cc2)CC1`, in series [3], the inhibition constant Ki was determined as 374 nM.
Regarding `N#Cc1cccc(-c2ccc(N(CCN3CCCC3)C(=O)Nc3ccc(C(F)(F)F)c(F)c3)cc2)c1`, the exposure AUC(0-t) at 6 h in series [2] was 967 ng·h/mL.
Turning to `CCS(=O)(=O)N1CCC(N(C(=O)Nc2ccc(F)c(C(F)(F)F)c2)c2ccc(-c3cccc(C#N)c3)cc2)CC1`, the Ki in series [3] was found to be 166 nM.
As to `N#Cc1cccc(-c2ccc(N(CCN3CC[C@H](O)C3)C(=O)Nc3ccc(C(F)(F)F)c(F)c3)cc2)c1`, in [2], the area under the curve AUC(0-t) at 6 h came to 1450 ng·h/mL. In series [3], this molecule showed an inhibition constant Ki of 7.3 nM.
On to `N#Cc1cccc(-c2ccc(N(CCN3CC[C@@H](O)C3)C(=O)Nc3ccc(C(F)(F)F)c(F)c3)cc2)c1`, for which the Food intake was determined as 16.9% with Rattus norvegicus [5]; 16% with Mus musculus [6]; 17% in the series with Mus musculus [8]; 14% in the series on Mus musculus [10]; 13.2% in the series with Rattus norvegicus [11]. Further, the Body weight gain in the series on Rattus norvegicus [7] worked out at 2.2 g; in the series with Rattus norvegicus [9], 1.2 g. The Kb in series [1] was determined as 2 nM. The area under the curve AUC(0-t) at 6 h in [2] stood at 5470 ng·h/mL. Also, affinity in [3] was put at a Ki of 8.9 nM.
With `CN(C)CCN(C(=O)Nc1ccc(C(F)(F)F)c(F)c1)c1ccc(-c2cccc(C#N)c2)cc1`, the AUC(0-t) at 6 h in [2] came to 4800 ng·h/mL. The inhibition constant Ki in [3] is 6 nM.
As to `CN(C)CCN(C(=O)Nc1cc(Cl)cc(Cl)c1)c1ccc(-c2cccc(C#N)c2)cc1`, the inhibition constant Ki in series [3] was determined as 19 nM.
On to `CNCCN(C(=O)Nc1ccc(F)c(Cl)c1)c1ccc(-c2cccc(C#N)c2)cc1`, for which the Kb in [1] stood at 6.2 nM. For the same molecule, affinity in [3] was put at a Ki of 6 nM.
In series [2], `N#Cc1cccc(-c2ccc(N(CCN3CC[C@@H](O)C3)C(=O)Nc3ccc(F)c(Cl)c3)cc2)c1` gave an AUC(0-t) at 6 h of 1080 ng·h/mL. Also, the Ki in [3] was determined as 7.1 nM.
In the case of `CN(C)CCN(C(=O)Nc1ccc(F)c(Cl)c1)c1ccc(-c2cccc(C#N)c2)cc1`, the Ki in [4] is 1080 nM; in series [3], 3.3 nM. In addition, the Kb in series [1] amounted to 3.1 nM. The exposure AUC(0-t) at 6 h in [2] came out at 1950 ng·h/mL.

For orientation: AUC(0-t) means the area under the concentration-time curve up to a stated or last time point. High values mean high exposure, low ones low exposure. The term Ki denotes a measure of affinity in units of concentration, obtained from inhibition or displacement. The low end stands for higher affinity, the high end for lower affinity.
